From patent US11400058B2, “Intravenous formulations of coenzyme Q10 (CoQ10) and methods of use thereof” (Berg LLC, priority 2010, dated 2022)
Marks after values point to notes of the source that are not given here.

Assay: 4-week repeat-dose toxicology study in rats with 2-week recovery (Study 20000328)
[1] = 125 mg/kg M, end of dosing, animals affected
[2] = 125 mg/kg M, end of dosing, animals of 10
[3] = 125 mg/kg M, end of recovery, animals of 5
[4] = 250 mg/kg F, end of dosing, animals of 10

In the case of `COC1=C(OC)C(=O)C(C/C=C(\C)CC/C=C(\C)CC/C=C(\C)CC/C=C(\C)CC/C=C(\C)CC/C=C(\C)CC/C=C(\C)CC/C=C(\C)CC/C=C(\C)CCC=C(C)C)=C(C)C1=O` [CoQ10, Coenzyme Q10], the Erythrocytes (125 mg/kg M, end of dosing) is reported as 7.59* 10^6/cmm, the “Food Consumption, percent difference from controls” value (125 mg/kg M, end of dosing) is reported as −9.2* % and the GGT (125 mg/kg M, end of dosing) is reported as 0.09 IU/L. For the same molecule, the Hematocrit (125 mg/kg M, end of dosing) was 41.6* %, the Hemoglobin (125 mg/kg M, end of dosing) was 14.3 g/dL and the Leukocytes (125 mg/kg M, end of dosing) was 11.03 10^3/cmm. The “Liver weight (absolute), percent difference from controls” value (125 mg/kg M, end of dosing) was −7.2%, the Lymphocytes (125 mg/kg M, end of dosing) was 8.70* 10^3/cmm and the Neutrophils (125 mg/kg M, end of dosing) was 1.71 10^3/cmm. The “Spleen weight (absolute), percent difference from controls” value (125 mg/kg M, end of dosing) was −23.4%, the “Injection Site Mononuclear Cell Infiltration” value [1] was 1 and the “Injection Site Mononuclear Cell Infiltration, Marked” value [1] was 1. For the same molecule, the “Injection Site Mononuclear Cell Infiltration, Mild” value [1] was 0, the “Injection Site Mononuclear Cell Infiltration, Minimal” value [1] was 0 and the “Injection Site Mononuclear Cell Infiltration, Moderate” value [1] was 0. For the same molecule, the “Bone Marrow, Sternum Hyperplasia” value [2] was 2, the “Bone Marrow, Sternum Hyperplasia, Mild” value [2] was 0 and the “Bone Marrow, Sternum Hyperplasia, Minimal” value [2] was 2. The “Gross Pathology: Enlarged Pancreatic Lymph Nodes” value [2] was 1, the “Gross Pathology: Pale Adrenal” value [2] was 0 and the “Gross Pathology: Pale Liver” value [2] was 9. The “Gross Pathology: Pale Lymph Nodes” value [2] was 4, the “Gross Pathology: Pale Pituitary” value [2] was 0 and the “Gross Pathology: Pale SQ Skin” value [2] was 1. The “Liver Focal Necrosis” value [2] was 0, the “Liver Focal Necrosis, Minimal” value [2] was 0 and the “Liver Histiocytic Infiltration” value [2] was 6. The “Liver Histiocytic Infiltration, Mild” value [2] was 3, the “Liver Histiocytic Infiltration, Minimal” value [2] was 3 and the “Liver Histiocytic Infiltration, Moderate” value [2] was 0. The “Liver Vacuolation” value [2] was 8, the “Liver Vacuolation, Mild” value [2] was 4 and the “Liver Vacuolation, Minimal” value [2] was 4. The “Lymph Node, Man. Histiocytic Infiltration” value [2] was 7, the “Lymph Node, Man. Histiocytic Infiltration, Mild” value [2] was 4 and the “Lymph Node, Man. Histiocytic Infiltration, Minimal” value [2] was 3. The “Lymph Node, Man. Histiocytic Infiltration, Moderate” value [2] was 0, the “Lymph Node, Mes. Histiocytic Infiltration” value [2] was 10 and the “Lymph Node, Mes. Histiocytic Infiltration, Mild” value [2] was 6. The “Lymph Node, Mes. Histiocytic Infiltration, Minimal” value [2] was 4, the “Lymph Node, Mes. Histiocytic Infiltration, Moderate” value [2] was 0 and the “Skin, Dermis Histiocytic Infiltration” value [2] was 1. For the same molecule, the “Skin, Dermis Histiocytic Infiltration, Marked” value [2] was 1, the “Skin, Dermis Histiocytic Infiltration, Mild” value [2] was 0 and the “Skin, Dermis Histiocytic Infiltration, Moderate” value [2] was 0. For the same molecule, the “Skin, SQ Histiocytic Infiltration” value [2] was 0, the “Skin, SQ Histiocytic Infiltration, Mild” value [2] was 0 and the “Spleen Histiocytic Infiltration” value [2] was 8. The “Spleen Histiocytic Infiltration, Marked” value [2] was 0, the “Spleen Histiocytic Infiltration, Mild” value [2] was 5 and the “Spleen Histiocytic Infiltration, Moderate” value [2] was 3. For the same molecule, the ALT (125 mg/kg M, end of recovery) was 27 IU/L, the APPT (125 mg/kg M, end of recovery) was 15.9* seconds and the AST (125 mg/kg M, end of recovery) was 94 IU/L. The “Body Weight, percent difference from controls” value (125 mg/kg M, end of recovery) was −2.2%, the “Food Consumption, percent difference from controls” value (125 mg/kg M, end of recovery) was “+1.2%” and the GGT (125 mg/kg M, end of recovery) was 0.00 IU/L. For the same molecule, the “Liver weight (absolute), percent difference from controls” value (125 mg/kg M, end of recovery) was −2.5%, the “Spleen weight (absolute), percent difference from controls” value (125 mg/kg M, end of recovery) was “+5.9%” and the “Adrenal Gland Vacuolation” value [3] was 5. For the same molecule, the “Adrenal Gland Vacuolation, Marked” value [3] was 0, the “Adrenal Gland Vacuolation, Mild” value [3] was 2 and the “Adrenal Gland Vacuolation, Minimal” value [3] was 0. For the same molecule, the “Adrenal Gland Vacuolation, Moderate” value [3] was 3, the “Gross Pathology: Enlarged Spleen” value [3] was 1 and the “Gross Pathology: Pale Iliac Lymph Node” value [3] was 2. The “Gross Pathology: Pale Liver” value [3] was 5, the “Gross Pathology: Pale Pancreatic Lymph Node” value [3] was 2 and the “Liver Focal Necrosis” value [3] was 3. The “Liver Focal Necrosis, Mild” value [3] was 1, the “Liver Focal Necrosis, Minimal” value [3] was 2 and the “Liver Histiocytic Infiltration” value [3] was 5. For the same molecule, the “Liver Histiocytic Infiltration, Mild” value [3] was 1, the “Liver Histiocytic Infiltration, Minimal” value [3] was 4 and the “Liver Histiocytic Infiltration, Moderate” value [3] was 0. For the same molecule, the “Liver Multifocal Necrosis” value [3] was 0, the “Liver Multifocal Necrosis, Mild” value [3] was 0 and the “Liver Multifocal Necrosis, Moderate” value [3] was 0. For the same molecule, the “Liver Vacuolation” value [3] was 5, the “Liver Vacuolation, Mild” value [3] was 4 and the “Liver Vacuolation, Minimal” value [3] was 1. For the same molecule, the “Liver Vacuolation, Moderate” value [3] was 0, the “Lymph Node, Man. Histiocytic Infiltration” value [3] was 5 and the “Lymph Node, Man. Histiocytic Infiltration, Mild” value [3] was 2. For the same molecule, the “Lymph Node, Man. Histiocytic Infiltration, Minimal” value [3] was 3, the “Lymph Node, Man. Histiocytic Infiltration, Moderate” value [3] was 0 and the “Lymph Node, Mes. Histiocytic Infiltration” value [3] was 5. For the same molecule, the “Lymph Node, Mes. Histiocytic Infiltration, Mild” value [3] was 1, the “Lymph Node, Mes. Histiocytic Infiltration, Minimal” value [3] was 3 and the “Spleen Histiocytic Infiltration” value [3] was 3. The “Spleen Histiocytic Infiltration, Marked” value [3] was 0, the “Spleen Histiocytic Infiltration, Mild” value [3] was 1 and the “Spleen Histiocytic Infiltration, Minimal” value [3] was 2. The “Spleen Histiocytic Infiltration, Moderate” value [3] was 0, the “Died or Sacrificed Moribund” value (250 mg/kg F, animals of 15) was 0 and the ALT (250 mg/kg F, end of dosing) was 22 IU/L. The APPT (250 mg/kg F, end of dosing) was 14.5* seconds, the AST (250 mg/kg F, end of dosing) was 88 IU/L and the “Body Weight, percent difference from controls” value (250 mg/kg F, end of dosing) was −8.9* %. For the same molecule, the Eosinophils (250 mg/kg F, end of dosing) was 0.10 10^3/cmm, the Erythrocytes (250 mg/kg F, end of dosing) was 6.12 10^6/cmm and the “Food Consumption, percent difference from controls” value (250 mg/kg F, end of dosing) was −18.3* %. The GGT (250 mg/kg F, end of dosing) was 0.25 IU/L, the Hematocrit (250 mg/kg F, end of dosing) was 39.2* % and the Hemoglobin (250 mg/kg F, end of dosing) was 13.2 g/dL. For the same molecule, the Leukocytes (250 mg/kg F, end of dosing) was 13.15* 10^3/cmm, the “Liver weight (absolute), percent difference from controls” value (250 mg/kg F, end of dosing) was “+14.5* %” and the Lymphocytes (250 mg/kg F, end of dosing) was 10.50* 10^3/cmm. For the same molecule, the Neutrophils (250 mg/kg F, end of dosing) was 1.97* 10^3/cmm, the “Spleen weight (absolute), percent difference from controls” value (250 mg/kg F, end of dosing) was “+51.0* %” and the “Adrenal Gland Vacuolation” value [4] was 10. For the same molecule, the “Adrenal Gland Vacuolation, Mild” value [4] was 3, the “Adrenal Gland Vacuolation, Minimal” value [4] was 0 and the “Adrenal Gland Vacuolation, Moderate” value [4] was 7. For the same molecule, the “Bone Marrow, Sternum Hyperplasia” value [4] was 0, the “Bone Marrow, Sternum Hyperplasia, Mild” value [4] was 0 and the “Bone Marrow, Sternum Hyperplasia, Minimal” value [4] was 0. For the same molecule, the “Gross Pathology: Enlarged Pancreatic Lymph Nodes” value [4] was 1, the “Gross Pathology: Pale Adrenal” value [4] was 2 and the “Gross Pathology: Pale Liver” value [4] was 10. The “Gross Pathology: Pale Lymph Nodes” value [4] was 7, the “Gross Pathology: Pale Ovaries” value [4] was 9 and the “Gross Pathology: Pale Pituitary” value [4] was 0. The “Gross Pathology: Pale SQ Skin” value [4] was 4, the “Injection Site Mononuclear Cell Infiltration” value [4] was 10 and the “Injection Site Mononuclear Cell Infiltration, Marked” value [4] was 2. The “Injection Site Mononuclear Cell Infiltration, Mild” value [4] was 1, the “Injection Site Mononuclear Cell Infiltration, Minimal” value [4] was 0 and the “Injection Site Mononuclear Cell Infiltration, Moderate” value [4] was 7. The “Liver Focal Necrosis” value [4] was 0, the “Liver Focal Necrosis, Minimal” value [4] was 0 and the “Liver Histiocytic Infiltration” value [4] was 9. The “Liver Histiocytic Infiltration, Mild” value [4] was 5, the “Liver Histiocytic Infiltration, Minimal” value [4] was 4 and the “Liver Histiocytic Infiltration, Moderate” value [4] was 0. For the same molecule, the “Liver Vacuolation” value [4] was 10, the “Liver Vacuolation, Mild” value [4] was 10 and the “Liver Vacuolation, Minimal” value [4] was 0. The “Lymph Node, Man. Histiocytic Infiltration” value [4] was 9, the “Lymph Node, Man. Histiocytic Infiltration, Mild” value [4] was 1 and the “Lymph Node, Man. Histiocytic Infiltration, Minimal” value [4] was 7. The “Lymph Node, Man. Histiocytic Infiltration, Moderate” value [4] was 1, the “Lymph Node, Mes. Histiocytic Infiltration” value [4] was 9 and the “Lymph Node, Mes. Histiocytic Infiltration, Mild” value [4] was 4. For the same molecule, the “Lymph Node, Mes. Histiocytic Infiltration, Minimal” value [4] was 5, the “Lymph Node, Mes. Histiocytic Infiltration, Moderate” value [4] was 0 and the “Ovary Histiocytic Infiltration” value [4] was 10. For the same molecule, the “Ovary Histiocytic Infiltration, Mild” value [4] was 6, the “Ovary Histiocytic Infiltration, Minimal” value [4] was 0 and the “Ovary Histiocytic Infiltration, Moderate” value [4] was 4. For the same molecule, the “Skin, Dermis Histiocytic Infiltration” value [4] was 2, the “Skin, Dermis Histiocytic Infiltration, Marked” value [4] was 0 and the “Skin, Dermis Histiocytic Infiltration, Mild” value [4] was 0. For the same molecule, the “Skin, Dermis Histiocytic Infiltration, Moderate” value [4] was 2, the “Skin, SQ Histiocytic Infiltration” value [4] was 0 and the “Skin, SQ Histiocytic Infiltration, Mild” value [4] was 0.
